# Measured values: ChEMBL document CHEMBL1201862, “PubChem BioAssay data set” (2004)
#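 These data come from cells grown in 96-well plates and exposed to compound for 48 hours at five concentrations. GI50 = concentration required for 50% inhibition of growth.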 Calls of active or inactive are those of the source. Cut-off read from the data, not from the text of the source: active = GI50 up to about 1.1 µM and inactive = higher.
# Key:
# Assay in all cases: NCI tumour cell line growth inhibition, 48 h
# HT-29 = test system: HT-29
# NCI-H226 = test system: NCI-H226
# LOX IMVI = test system: LOX IMVI
# RPMI-8226 = test system: RPMI-8226
# MDA-MB-435 = test system: MDA-MB-435
# KM12 = test system: KM12
# CCRF-CEM = test system: CCRF-CEM
# HCT-15 = test system: HCT-15
# SN12C = test system: SN12C
# SF-295 = test system: SF-295
# SR = test system: SR
# SF-268 = test system: SF-268
# M14 = test system: M14
# T47D = test system: T47D
# ACHN = test system: ACHN
# HL-60 = test system: HL-60
# EKVX = test system: EKVX
# NCI-H460 = test system: NCI-H460
# DU-145 = test system: DU-145
# UACC-62 = test system: UACC-62
# Malme-3M = test system: Malme-3M
# MDA-N = test system: MDA-N
# UACC-257 = test system: UACC-257
# OVCAR-5 = test system: OVCAR-5
# UO-31 = test system: UO-31
# PC-3 = test system: PC-3
# SK-MEL-2 = test system: SK-MEL-2
# HOP-62 = test system: HOP-62
# K562 = test system: K562
# SK-OV-3 = test system: SK-OV-3
# COLO 205 = test system: COLO 205
# SK-MEL-5 = test system: SK-MEL-5
# SK-MEL-28 = test system: SK-MEL-28
# MCF7 = test system: MCF7
# SNB-75 = test system: SNB-75
# HCC 2998 = test system: HCC 2998
# OVCAR-4 = test system: OVCAR-4
# SW-620 = test system: SW-620
# MOLT-4 = test system: MOLT-4
# NCI-H23 = test system: NCI-H23
# OVCAR-8 = test system: OVCAR-8
# TK-10 = test system: TK-10
# A549 = test system: A549
# CAKI-1 = test system: CAKI-1
# U-251 = test system: U-251
# SNB-19 = test system: SNB-19
# A498 = test system: A498
# 786-0 = test system: 786-0
# IGROV-1 = test system: IGROV-1
# NCI/ADR-RES = test system: NCI/ADR-RES
# MDA-MB-231 = test system: MDA-MB-231
# RXF 393 = test system: RXF 393
# SF-539 = test system: SF-539
# OVCAR-3 = test system: OVCAR-3
# HOP-92 = test system: HOP-92
# HCT-116 = test system: HCT-116
# NCI-H522 = test system: NCI-H522
# Hs-578T = test system: Hs-578T
compound,measurement,setting,value
O=C(CC(C(=O)c1ccsc1)c1cccs1)c1ccsc1 (centres undefined),GI50,HT-29,63.1 µM (inactive)
same,GI50,NCI-H226,> 100 µM (inactive)
same,GI50,LOX IMVI,34.1 µM (inactive)
same,GI50,RPMI-8226,12.1 µM (inactive)
same,GI50,MDA-MB-435,34.8 µM (inactive)
same,GI50,KM12,31.5 µM (inactive)
same,GI50,CCRF-CEM,15.2 µM (inactive)
same,GI50,HCT-15,45.6 µM
same,GI50,SN12C,65.6 µM (inactive)
same,GI50,SF-295,43.7 µM (inactive)
same,GI50,SR,27.4 µM (inactive)
same,GI50,SF-268,85.9 µM (inactive)
same,GI50,M14,56 µM (inactive)
same,GI50,T47D,21.4 µM (inactive)
same,GI50,ACHN,42 µM (inactive)
same,GI50,HL-60,31.8 µM (inactive)
same,GI50,EKVX,49.9 µM (inactive)
same,GI50,NCI-H460,53.8 µM (inactive)
same,GI50,DU-145,75.7 µM (inactive)
same,GI50,UACC-62,31.5 µM (inactive)
same,GI50,Malme-3M,56.8 µM (inactive)
same,GI50,MDA-N,30.1 µM (inactive)
same,GI50,UACC-257,51.4 µM (inactive)
same,GI50,OVCAR-5,> 100 µM (inactive)
same,GI50,UO-31,25.8 µM (inactive)
same,GI50,PC-3,28.5 µM (inactive)
same,GI50,SK-MEL-2,94 µM (inactive)
same,GI50,HOP-62,> 100 µM (inactive)
same,GI50,K562,42.8 µM (inactive)
same,GI50,SK-OV-3,54.6 µM (inactive)
same,GI50,COLO 205,45.1 µM (inactive)
same,GI50,SK-MEL-5,31.4 µM (inactive)
same,GI50,SK-MEL-28,76.2 µM (inactive)
same,GI50,MCF7,39 µM (inactive)
same,GI50,SNB-75,27.4 µM (inactive)
same,GI50,HCC 2998,> 100 µM (inactive)
same,GI50,OVCAR-4,73.5 µM (inactive)
same,GI50,SW-620,> 100 µM (inactive)
same,GI50,MOLT-4,28.5 µM (inactive)
same,GI50,NCI-H23,32.6 µM (inactive)
same,GI50,OVCAR-8,60.5 µM (inactive)
same,GI50,TK-10,> 100 µM (inactive)
same,GI50,A549,46.6 µM (inactive)
same,GI50,CAKI-1,> 100 µM (inactive)
same,GI50,U-251,> 100 µM (inactive)
same,GI50,SNB-19,> 100 µM (inactive)
same,GI50,A498,81.8 µM (inactive)
same,GI50,786-0,> 100 µM (inactive)
same,GI50,IGROV-1,> 100 µM (inactive)
same,GI50,NCI/ADR-RES,17.5 µM (inactive)
same,GI50,MDA-MB-231,92 µM (inactive)
CC(C)(Oc1ccc(C(=O)c2ccc(Cl)cc2)cc1Cl)C(=O)N1CCN(CCO)CC1,GI50,HT-29,> 10 µM (inactive)
same,GI50,LOX IMVI,> 10 µM (inactive)
same,GI50,RPMI-8226,4.51 µM (inactive)
same,GI50,KM12,> 10 µM (inactive)
same,GI50,CCRF-CEM,> 10 µM (inactive)
same,GI50,HCT-15,> 10 µM
same,GI50,SN12C,> 10 µM (inactive)
same,GI50,SF-295,8.59 µM (inactive)
same,GI50,SR,2.96 µM (inactive)
same,GI50,M14,> 10 µM (inactive)
same,GI50,T47D,5.85 µM (inactive)
same,GI50,HL-60,3.53 µM (inactive)
same,GI50,EKVX,> 10 µM (inactive)
same,GI50,DU-145,7.05 µM (inactive)
same,GI50,UACC-62,> 10 µM (inactive)
same,GI50,RXF 393,6.27 µM (inactive)
same,GI50,Malme-3M,9.42 µM (inactive)
same,GI50,MDA-N,> 10 µM (inactive)
same,GI50,UACC-257,3.39 µM (inactive)
same,GI50,PC-3,3.93 µM (inactive)
same,GI50,HOP-62,> 10 µM (inactive)
same,GI50,K562,2.85 µM (inactive)
same,GI50,SK-OV-3,> 10 µM (inactive)
same,GI50,COLO 205,> 10 µM (inactive)
same,GI50,SK-MEL-5,3.91 µM (inactive)
same,GI50,SK-MEL-28,> 10 µM (inactive)
same,GI50,MCF7,5.12 µM (inactive)
same,GI50,SNB-75,> 10 µM (inactive)
same,GI50,HCC 2998,> 10 µM (inactive)
same,GI50,SW-620,> 10 µM (inactive)
same,GI50,MOLT-4,4.4 µM (inactive)
same,GI50,NCI-H23,4.24 µM (inactive)
same,GI50,OVCAR-8,> 10 µM (inactive)
same,GI50,TK-10,> 10 µM (inactive)
same,GI50,A549,> 10 µM (inactive)
same,GI50,CAKI-1,> 10 µM (inactive)
same,GI50,786-0,> 10 µM (inactive)
same,GI50,IGROV-1,> 10 µM (inactive)
same,GI50,MDA-MB-231,> 10 µM (inactive)
CCOC(=O)c1c(-c2cccc3ccccc23)c(C#N)c(=S)n(C2OC(COC(C)=O)C(OC(C)=O)C(OC(C)=O)C2OC(C)=O)c1C (centres undefined),GI50,HT-29,> 100 µM (inactive)
same,GI50,NCI-H226,> 100 µM (inactive)
same,GI50,LOX IMVI,> 100 µM (inactive)
same,GI50,MDA-MB-435,> 100 µM (inactive)
same,GI50,KM12,> 100 µM (inactive)
same,GI50,SF-539,> 100 µM (inactive)
same,GI50,CCRF-CEM,> 100 µM (inactive)
same,GI50,HCT-15,> 100 µM
same,GI50,SN12C,> 100 µM (inactive)
same,GI50,SF-295,> 100 µM (inactive)
same,GI50,SR,> 100 µM (inactive)
same,GI50,SF-268,> 100 µM (inactive)
same,GI50,M14,> 100 µM (inactive)
same,GI50,T47D,> 100 µM (inactive)
same,GI50,OVCAR-3,> 100 µM (inactive)
same,GI50,ACHN,> 100 µM (inactive)
same,GI50,HL-60,> 100 µM (inactive)
same,GI50,NCI-H460,> 100 µM (inactive)
same,GI50,DU-145,> 100 µM (inactive)
same,GI50,UACC-62,> 100 µM (inactive)
same,GI50,RXF 393,> 100 µM (inactive)
same,GI50,HOP-92,> 100 µM (inactive)
same,GI50,Malme-3M,> 100 µM (inactive)
same,GI50,MDA-N,> 100 µM (inactive)
same,GI50,UACC-257,> 100 µM (inactive)
same,GI50,OVCAR-5,> 100 µM (inactive)
same,GI50,UO-31,1.32 µM (inactive)
same,GI50,PC-3,15.8 µM (inactive)
same,GI50,SK-MEL-2,64.1 µM (inactive)
same,GI50,HOP-62,> 100 µM (inactive)
same,GI50,K562,> 100 µM (inactive)
same,GI50,SK-OV-3,> 100 µM (inactive)
same,GI50,COLO 205,> 100 µM (inactive)
same,GI50,SK-MEL-5,> 100 µM (inactive)
same,GI50,SK-MEL-28,> 100 µM (inactive)
same,GI50,MCF7,> 100 µM (inactive)
same,GI50,SNB-75,13.7 µM (inactive)
same,GI50,HCC 2998,> 100 µM (inactive)
same,GI50,OVCAR-4,> 100 µM (inactive)
same,GI50,MOLT-4,> 100 µM (inactive)
same,GI50,NCI-H23,> 100 µM (inactive)
same,GI50,OVCAR-8,> 100 µM (inactive)
same,GI50,TK-10,> 100 µM (inactive)
same,GI50,A549,> 100 µM (inactive)
same,GI50,U-251,> 100 µM (inactive)
same,GI50,HCT-116,> 100 µM (inactive)
same,GI50,SNB-19,> 100 µM (inactive)
same,GI50,A498,> 100 µM (inactive)
same,GI50,786-0,> 100 µM (inactive)
same,GI50,NCI-H522,> 100 µM (inactive)
same,GI50,IGROV-1,> 100 µM (inactive)
same,GI50,NCI/ADR-RES,> 100 µM (inactive)
same,GI50,MDA-MB-231,> 100 µM (inactive)
COC(=O)CCC(=O)c1ccc2c(c1)CC1(C2)Cc2ccc(C(=O)CCC(=O)OC)cc2C1,GI50,HT-29,> 100 µM (inactive)
same,GI50,LOX IMVI,> 100 µM (inactive)
same,GI50,RPMI-8226,35.2 µM (inactive)
same,GI50,MDA-MB-435,> 100 µM (inactive)
same,GI50,KM12,> 100 µM (inactive)
same,GI50,SF-539,67.5 µM (inactive)
same,GI50,CCRF-CEM,> 100 µM (inactive)
same,GI50,HCT-15,> 100 µM
same,GI50,SN12C,> 100 µM (inactive)
same,GI50,SF-295,53.8 µM (inactive)
same,GI50,SR,17 µM (inactive)
same,GI50,M14,66.5 µM (inactive)
same,GI50,T47D,56 µM (inactive)
same,GI50,OVCAR-3,61.2 µM (inactive)
same,GI50,ACHN,25.8 µM (inactive)
same,GI50,HL-60,56.2 µM (inactive)
same,GI50,EKVX,> 100 µM (inactive)
same,GI50,UACC-62,> 100 µM (inactive)
same,GI50,RXF 393,> 100 µM (inactive)
same,GI50,HOP-92,> 100 µM (inactive)
same,GI50,Malme-3M,> 100 µM (inactive)
same,GI50,MDA-N,73.1 µM (inactive)
same,GI50,UACC-257,85.1 µM (inactive)
same,GI50,OVCAR-5,> 100 µM (inactive)
same,GI50,UO-31,30.5 µM (inactive)
same,GI50,PC-3,39.8 µM (inactive)
same,GI50,SK-MEL-2,0.61 µM (active)
same,GI50,HOP-62,43.5 µM (inactive)
same,GI50,K562,29.9 µM (inactive)
same,GI50,SK-OV-3,67 µM (inactive)
same,GI50,COLO 205,94.4 µM (inactive)
same,GI50,SK-MEL-5,17.3 µM (inactive)
same,GI50,MCF7,44.1 µM (inactive)
same,GI50,SNB-75,< 0.01 µM (active)
same,GI50,HCC 2998,> 100 µM (inactive)
same,GI50,OVCAR-4,32.7 µM (inactive)
same,GI50,MOLT-4,52 µM (inactive)
same,GI50,Hs-578T,> 100 µM (inactive)
same,GI50,NCI-H23,59.7 µM (inactive)
same,GI50,OVCAR-8,73.6 µM (inactive)
same,GI50,TK-10,82.6 µM (inactive)
same,GI50,A549,> 100 µM (inactive)
same,GI50,U-251,36.4 µM (inactive)
same,GI50,HCT-116,> 100 µM (inactive)
same,GI50,A498,45 µM (inactive)
same,GI50,786-0,30.8 µM (inactive)
same,GI50,NCI-H522,55.1 µM (inactive)
same,GI50,IGROV-1,> 100 µM (inactive)
same,GI50,NCI/ADR-RES,37.4 µM (inactive)
same,GI50,MDA-MB-231,60.1 µM (inactive)
COc1ccc(/C=C\c2cc(OC)c(OC)c(OC)c2)cc1OP(=O)(O)O,GI50,NCI/ADR-RES,0.000137 µM (active)
